Assay results published in paper PMC5834611, “A mechanism for CO regulation of ion channels” (Nature Communications, 2018).

Experiments:
SUR2A [1] = target: T1, SUR2A (Rattus norvegicus, UniProt Q63563); assay: spectrophotometric titration; stopped-flow, resonance Raman, ultrafast spectroscopy; assay type: binding
T1 construct: gene Abcc9; residues S615-L933 (SUR2A^615–933; CXXHX16H motif and NBD1)
T1 sequence (Q63563 615-933): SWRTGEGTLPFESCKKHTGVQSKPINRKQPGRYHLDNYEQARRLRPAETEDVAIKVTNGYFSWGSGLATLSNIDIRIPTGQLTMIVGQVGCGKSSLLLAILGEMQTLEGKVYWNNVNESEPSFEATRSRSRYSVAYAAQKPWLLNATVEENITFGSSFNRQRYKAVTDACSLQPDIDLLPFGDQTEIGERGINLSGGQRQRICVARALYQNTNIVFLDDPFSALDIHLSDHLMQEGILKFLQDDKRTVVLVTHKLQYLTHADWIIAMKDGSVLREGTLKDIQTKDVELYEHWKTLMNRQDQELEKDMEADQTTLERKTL

SUR2A [2] = target: T1, SUR2A; assay: UV-vis absorption titration of purified protein; koff by heme transfer to apo-myoglobin; assay type: binding

| Compound | Kd (SUR2A [1]) [µM] | Kd (SUR2A [2]) [µM] |
| --- | --- | --- |
| [C-]#[O+] [carbon monoxide] | 0.6 ± 0.3 | – |
| C=CC1=C(C)C2=Cc3c(C=C)c(C)c4[n]3[Fe]([Cl])[n]3c(c(C)c(CCC(=O)O)c3=CC3=NC(=C4)C(C)=C3CCC(=O)O)=CC1=N2 [hemin] | – | 8 ± 0.6 |
